In ChEMBL document CHEMBL5365553, “Design of Synthetic Surrogates for the Macrolactone Linker Motif in Coibamide A” (ACS Med Chem Lett, 2023) one finds inhibition and Activity data, which are given here for 9 compounds.

Active and inactive are the calls of the source. The calls are words filed in the database; no cut-off is given here. Positions of bridges follow the written chain, without caps; N, C: chain ends. Non-standard residues stand in square brackets, D forms with d. Residues, ends and D or L forms follow the SMILES beside them. *: point of attachment. NMe2Val = CC(C)[C@@H](C(=O)*)N(C)C; NMeLys(Me) = CNCCCC[C@H](NC)C(=O)O; NMeI = CC[C@H](C)[C@H](NC)C(=O)O; NMeT = CN[C@H](C(=O)O)[C@@H](C)O; NMeL = CN[C@@H](CC(C)C)C(=O)O; NMeDap = CN[C@@H](CN)C(=O)O; dHiv = CC(C)[C@@H](O)C(=O)O; NMeA = CN[C@@H](C)C(=O)O; dNMeA = CN[C@H](C)C(=O)O

Common to all, as to type: functional, cell-based
The subject of experiment [1] is U-87 MG. The experiment can be described thus: Antiproliferative activity against human U-87 MG cells expressing GLuc assessed as as inhibition of GLuc secretion incubated for 18 hrs by CellTiter-Glo Luminescent Cell Viability Assay. As to conditions: U-87MG ATCC. Background: ATP-based viability assays read luminescence as a measure of living cells.
Experiment [2] has as its system U-87 MG. Put plainly: Antiproliferative activity against human U-87MG cells expressing GLuc assessed as cell viability at 0.0003 to 300 nM incubated for 18 hrs by CellTiter-Glo Luminescent Cell Viability Assay. As to conditions: U-87MG ATCC, dose 0.0003-300 nM.
The subject of experiment [3] is SF-268. The experiment can be described thus: Inhibition of endogenously-secreted VEGF-A in human SF-268 cells incubated for 24 hrs by ELISA assay. As to conditions: dose 30-100 nM. A general note: An ELISA detects its analyte on a solid surface through an enzyme-linked reagent.
Experiment [4] deals with U-87 MG. Put plainly: Antiproliferative activity against human U87 cells expressing GLuc assessed as inhibition of GLuc secretion incubated for 18 hrs by CellTiter-Glo Luminescent Cell Viability Assay. As to conditions: U-87MG ATCC, dose 0.1-10 µM.
Experiment [5] deals with SF-268. Put plainly: Downregulation of VEGF-A protein secretion level in human SF-268 cells at 30 to 300 nM for 24 hrs by ELISA analysis. As to conditions: dose 30-300 nM.
Experiment [6] relates to SF-268. Put plainly: Downregulation of VEGF-A protein secretion level in human SF-268 cells for 24 hrs by ELISA analysis. As to conditions: dose 30-100 nM.

Turning to `CC[C@H](C)[C@H]1C(=O)N[C@@H](C)C(=O)N(C)[C@@H](CC(C)C)C(=O)N[C@@H](Cc2ccc(OC)cc2)C(=O)N(C)[C@H](C)C(=O)N(C)C[C@H](N(C)C(=O)[C@H](CC(C)C)N(C)C(=O)[C@H](C)N(C)C(=O)[C@H](OC(=O)[C@H](C(C)C)N(C)C)C(C)C)C(=O)N(C)[C@@H](C)C(=O)N1C`, the inhibition entry in the experiment with U-87 MG [1] is “Dose-Dependent Effect”. Further, the inhibition result in the experiment with U-87 MG [2] is “inactive”.

Take `CC[C@H](C)[C@H]1C(=O)N[C@@H](C)C(=O)N(C)[C@@H](CC(C)C)C(=O)N[C@@H](Cc2ccc(OC)cc2)C(=O)N(C)[C@H](C)CC[C@H](C)[C@H](N(C)C(=O)[C@H](CC(C)C)N(C)C(=O)[C@H](C)N(C)C(=O)[C@H](OC(=O)[C@H](C(C)C)N(C)C)C(C)C)C(=O)N(C)[C@@H](C)C(=O)N1C`: the inhibition result in the experiment on SF-268 [3] and in the experiment on U-87 MG [1] was “Dose-Dependent Effect” throughout. The inhibition entry with U-87 MG [2] was “inactive”. In addition, the Activity result in the experiment with U-87 MG [4] and with SF-268 [5] was “Dose-Dependent Effect” each time.

Take `CC[C@H](C)[C@H]1C(=O)N[C@@H](C)C(=O)N(C)[C@@H](CC(C)C)C(=O)N[C@@H](Cc2ccc(OC)cc2)C(=O)N(C)[C@H](C)C(=O)O[C@H](C)[C@H](N(C)C(=O)[C@H](CC(C)C)N(C)C(=O)[C@H](C)N(C)C(=O)[C@H](OC(=O)[C@H](C(C)C)N(C)C)C(C)C)C(=O)N(C)[C@@H](C)C(=O)N1C` (NMe2Val-[dHiv][NMeA][NMeL][NMeT][NMeA][NMeI]A[NMeL]Y(Me)[dNMeA]; ester 4-C): the inhibition entry in the experiment with U-87 MG [1] is “Dose-Dependent Effect”. Moreover, the inhibition entry in the experiment on U-87 MG [2] is “inactive”. In addition, the Activity entry in the experiment with U-87 MG [4] is “Dose-Dependent Effect”.

On to `CC[C@H](C)[C@H]1C(=O)N[C@@H](C)C(=O)N(C)[C@@H](CC(C)C)C(=O)N[C@@H](Cc2ccc(OC)cc2)C(=O)N(C)[C@H](C)C(=O)N[C@H](C)[C@H](N(C)C(=O)[C@H](CC(C)C)N(C)C(=O)[C@H](COC)N(C)C(=O)[C@H](OC(=O)[C@H](C(C)C)N(C)C)C(C)C)C(=O)N(C)[C@@H](COC)C(=O)N1C`, for which the inhibition entry with SF-268 [3] and with U-87 MG [1] was “Dose-Dependent Effect” each time. Besides, the inhibition result with U-87 MG [2] was “inactive”. The Activity entry with U-87 MG [4] and in the experiment with SF-268 [6] was “Dose-Dependent Effect” throughout.

With `CC[C@H](C)[C@H]1C(=O)N[C@@H](C)C(=O)N(C)[C@@H](CC(C)C)C(=O)N[C@@H](Cc2ccc(-c3ccccc3)cc2)C(=O)N(C)[C@H](C)C(=O)N[C@H](C)[C@H](N(C)C(=O)[C@H](CC(C)C)N(C)C(=O)[C@H](COC)N(C)C(=O)[C@H](OC(=O)[C@H](C(C)C)N(C)C)C(C)C)C(=O)N(C)[C@@H](COC)C(=O)N1C`, in the experiment on U-87 MG [1], the inhibition result was “Dose-Dependent Effect”. The inhibition entry in the experiment with U-87 MG [2] is “inactive”. Besides, the Activity entry with U-87 MG [4] is “Dose-Dependent Effect”.

Consider `CC[C@H](C)[C@H]1C(=O)N[C@@H](C)C(=O)N(C)[C@@H](CC(C)C)C(=O)N[C@@H](Cc2ccc(OC)cc2)C(=O)N(C)[C@H](C)C(=O)NC[C@H](N(C)C(=O)[C@H](CC(C)C)N(C)C(=O)[C@H](C)N(C)C(=O)[C@H](OC(=O)[C@H](C(C)C)N(C)C)C(C)C)C(=O)N(C)[C@@H](C)C(=O)N1C` (NMe2Val-[dHiv][NMeA][NMeL][NMeDap][NMeA][NMeI]A[NMeL]Y(Me)[dNMeA]; lactam 4-C), for which the inhibition entry with U-87 MG [1] was “Dose-Dependent Effect”. Moreover, the inhibition entry in the experiment with U-87 MG [2] was “inactive”. The Activity result in the experiment with U-87 MG [4] is “Dose-Dependent Effect”.

Turning to `CC[C@H](C)[C@H]1C(=O)N[C@@H](C)C(=O)N(C)[C@@H](CC(C)C)C(=O)N[C@@H](Cc2ccc(OC)cc2)C(=O)N(C)CCCC[C@H](N(C)C(=O)[C@H](CC(C)C)N(C)C(=O)[C@H](C)N(C)C(=O)[C@H](OC(=O)[C@H](C(C)C)N(C)C)C(C)C)C(=O)N(C)[C@@H](C)C(=O)N1C` (NMe2Val-[dHiv][NMeA][NMeL][NMeLys(Me)][NMeA][NMeI]A[NMeL]Y(Me); lactam 4-C), the inhibition entry in the experiment with SF-268 [3] and with U-87 MG [1] was “Dose-Dependent Effect” in each case. Moreover, in the experiment with U-87 MG [2], the inhibition entry is “inactive”. For the same compound, the Activity entry in the experiment on U-87 MG [4] and with SF-268 [5] was “Dose-Dependent Effect” throughout.

In the case of `CC[C@H](C)[C@H]1C(=O)N[C@@H](C)C(=O)N(C)[C@@H](CC(C)C)C(=O)N[C@@H](Cc2ccc(OC)cc2)C(=O)N(C)[C@H](C)/C=C/[C@H](C)[C@H](N(C)C(=O)[C@H](CC(C)C)N(C)C(=O)[C@H](C)N(C)C(=O)[C@H](OC(=O)[C@H](C(C)C)N(C)C)C(C)C)C(=O)N(C)[C@@H](C)C(=O)N1C`, in the experiment on U-87 MG [1], the inhibition result is “Dose-Dependent Effect”. In addition, the inhibition entry in the experiment with U-87 MG [2] was “inactive”. In addition, the Activity result in the experiment with U-87 MG [4] was “Dose-Dependent Effect”.

For the compound `CC[C@H](C)[C@H]1C(=O)N[C@@H](C)C(=O)N(C)[C@@H](CC(C)C)C(=O)N[C@@H](Cc2ccc(OC)cc2)C(=O)N(C)[C@H](C)C(=O)N[C@H](C)[C@H](N(C)C(=O)[C@H](CC(C)C)N(C)C(=O)[C@H](C)N(C)C(=O)[C@H](OC(=O)[C@H](C(C)C)N(C)C)C(C)C)C(=O)N(C)[C@@H](C)C(=O)N1C`, the inhibition result in the experiment with U-87 MG [1] is “Dose-Dependent Effect”. Moreover, the inhibition result with U-87 MG [2] was “inactive”. For the same compound, the Activity entry in the experiment on U-87 MG [4] was “Dose-Dependent Effect”.
